Measured values published in publication PMC12005801, “Non‐Membrane Active Peptide Resensitizes MRSA to β‐Lactam Antibiotics and Inhibits S. aureus Virulence” (Advanced Science, 2025).
Read-outs that look alike come from different tables or passages of the source.

What was measured:
MRSA T144 [1] = assay: MIC assay, agent alone; type: cell-based, Staphylococcus aureus; design: MIC^a, MIC in the presence of AMPs only: unit not given beside the values; conditions: for MIC: Staphylococcus aureus
MRSA T144 [2] = assay: MIC assay of β-lactams in the presence of AMPs (potentiation); type: cell-based, Staphylococcus aureus; conditions: for Potentiation (fold)^c, MIC^a / MIC^b: antibiotic with 1/4 MIC GN1
Description: A) Potentiation of different AMPs to piperacillin (PIP) against MRSA T144. 1/4 MIC AMPs were mixed with bacteria (10^6 CFU mL^−1) in MH medium and cultured with diluted PIP in 96‐well plates overnight. […] All experiments were conducted with three biological replicates and data were presented as mean ± SD.

S. aureus 29213 = assay: MIC of β-lactams with/without GN1; type: cell-based, Staphylococcus aureus; conditions: for MIC: Staphylococcus aureus, antibiotic alone; for MIC (+1/2 MIC GN1): antibiotic + 1/2 MIC GN1
Description: MICs determination of drugs was based on the standard microdilution method as described previously.^[ [46] ^] Briefly, compounds were twofold serial dilution with MHB. Next, AMPs were added to the log‐phase bacteria suspensions (1 × 10^6 CFUs mL^−1) and then mixed with compounds in a 96‐well microliter plate (Corning, NY, USA).

MRSA T144 [3] = assay: Time-killing assay; type: cell-based, Staphylococcus aureus; conditions: identical concentrations alone: GN1 8 µg mL^−1, PIP 16 µg mL^−1, 12 h
Description: Briefly, overnight bacteria culture was diluted 1:1000 into LB and incubated for 4 h at 37 °C with 200 rpm. […] At the time points 0, 2, 4, 6, 8, 10, and 12 h, 100 µL bacteria culture was removed and resuspended in PBS and the serial dilutions were spotted on LB agar. After incubation overnight at 37 °C, the colony counts were calculated.

MRSA T144 [4] = conditions: addition of glutamate
Description: G) Fold changes in MIC values of various β‐lactams in the presence of glutamate against MRSA T144. […] All experiments were conducted with three biological replicates and data were presented as mean ± SD. Statistical significance was analyzed by ordinary one‐way or two‐way ANOVA (*P < 0.05, **P < 0.01, ***P < 0.001, ****P < 0.0001). ns, not significant.

[5] = MRSA T144, read-out: MIC^a, MIC in the presence of antibiotics only
[6] = MRSA, read-out: MIC^a, MIC in the presence of antibiotics only

Molecule | MIC (MRSA T144 [1]; [5]) | MIC^b, MIC in combination of antibiotics and 1/4 MIC GN1 (MRSA T144 [2]) | Potentiation (fold)^c, MIC^a / MIC^b (MRSA T144 [2]) | MIC (S. aureus 29213) | MIC (+1/2 MIC GN1) (S. aureus 29213) | MIC (MRSA T144 [1]; [6]) | other results
CC1(C)S[C@@H]2[C@H](NC(=O)[C@H](N)c3ccccc3)C(=O)N2[C@H]1C(=O)O [Ampicillin] | 512 µg/mL | 8 µg/mL | 64 fold | 16 µg/mL | 8 µg/mL |  | 
CC1(C)S[C@@H]2[C@H](NC(=O)C(C(=O)O)c3ccccc3)C(=O)N2[C@H]1C(=O)O (stereo partly drawn) [Carbenicillin] |  | 1 µg/mL | 32 fold |  |  | 32 µg/mL | 
CO/N=C(\C(=O)N[C@@H]1C(=O)N2C(C(=O)[O-])=C(C[N+]3(C)CCCC3)CS[C@H]12)c1csc(N)n1 [Cefepime] |  | 2 µg/mL | 4 fold | 4 µg/mL | 2 µg/mL | 8 µg/mL | 
CO/N=C(\C(=O)N[C@@H]1C(=O)N2C(C(=O)O)=C(CSc3nc(=O)c(=O)[nH]n3C)CS[C@H]12)c1csc(N)n1 [Ceftriaxone] |  | 4 µg/mL | 8 fold |  |  | 32 µg/mL | 
CO/N=C(\C(=O)N[C@@H]1C(=O)N2C(C(=O)O)=C(COC(N)=O)CS[C@H]12)c1ccco1 [Cefuroxime] |  | 1 µg/mL | 8 fold |  |  | 8 µg/mL | 
C[C@@H](O)[C@H]1C(=O)N2C(C(=O)O)=C(S[C@@H]3CN[C@H](C(=O)N(C)C)C3)[C@H](C)[C@H]12 [Meropenem] |  | 0.0625 µg/mL | 16 fold | 0.0625 µg/mL | 0.03125 µg/mL | 1 µg/mL | 
Cc1onc(-c2ccccc2)c1C(=O)N[C@@H]1C(=O)N2[C@@H]1SC(C)(C)[C@@H]2C(=O)O [Oxacillin] | 1 µg/mL | 0.03125 µg/mL | 32 fold |  |  |  | 
CCN1CCN(C(=O)N[C@@H](C(=O)N[C@@H]2C(=O)N3[C@@H]2SC(C)(C)[C@@H]3C(=O)O)c2ccccc2)C(=O)C1=O [Piperacillin] | > 512 µg/mL | 8 µg/mL |  | 2 µg/mL | 0.5 µg/mL |  | MIC (MRSA T144 [1]; MRSA T144, read-out: MIC of PIP alone): 512 µg/mL; Time-kill kinetics, single agent (MRSA T144 [3]): failed to prevent bacterial proliferation
CC1(C)S[C@@H]2[C@H](NC(=O)[C@H](C(=O)O)c3ccsc3)C(=O)N2[C@H]1C(=O)O [Ticarcillin] | 16 µg/mL | 1 µg/mL | 16 fold | 2 µg/mL | 2 µg/mL |  | 
N[C@@H](CCC(=O)O)C(=O)O [glutamate] |  |  |  |  |  |  | Reduction of MIC values of three β‐lactam antibiotics (MRSA T144 [4]): 2-16 fold
Ac-WKVKWKVKWKVK-NH2 [WK-12] |  |  |  |  |  |  | MIC^a, MIC in the presence of AMPs only (MRSA T144 [1]; MRSA T144, microdilution in MHB, 1 × 10^6 CFUs mL^−1, 37 °C, 16–18 h, no unit in table (text gives µg mL^−1)): 32; Potentiation (fold)^c, MIC^c / MIC^b (MRSA T144 [2]; MIC of piperacillin only / MIC of piperacillin with 1/4 MIC AMP): 4 fold; MIC^b, MIC of piperacillin in the presence of 1/4 MIC AMPs (MRSA T144 [2]; label = the AMP added at 1/4 MIC, no unit in table (text gives µg mL^−1)): 128
